Test results published in publication PMC7898795 (Angewandte Chemie (International Ed. in English), 2020).
Values after ≈ are worked out from the molar mass of the structure shown.

Assay: Water solubility assay
Type: physicochemical
Details: for solubility thermodynamic at 24 h: thermodynamic from solid
[1] = 50 mM TEAA buffer, pH 7.9, aqueous buffer

Structure (SMILES)	solubility thermodynamic at 24 h [1]	solubility thermodynamic at 24 h (ddH2O, water)	times more water-soluble than thiostrepton, in 50 mM TEAA (pH 7.9) (ratio of solubility to that of thiostrepton in 50 mM TEAA pH 7.9)	times more water-soluble than thiostrepton, in ddH2O (ratio of solubility to that of thiostrepton in ddH2O)
C=C(NC(=O)C(=C)NC(=O)c1csc(C2=N[C@@H]3c4csc(n4)[C@H]4NC(=O)c5csc(n5)[C@H]([C@](C)(O)[C@@H](C)O)NC(=O)[C@H]5CSC(=N5)/C(=C/C)NC(=O)[C@H]([C@@H](C)O)NC(=O)c5csc(n5)[C@]3(CC2)NC(=O)[C@H](C)NC(=O)C(=C)NC(=O)[C@H](C)NC(=O)[C@H]([C@@H](C)CC)N[C@@H]2C=Cc3c([C@H](C)O)cc(nc3[C@H]2O)C(=O)O[C@@H]4C)n1)C(N)=O [Thiostrepton, thiostrepton, reference compound]	5 ± 0.2 µg/mL (≈ 3 µM)	6.4 ± 0.1 µg/mL (≈ 3.84 µM)		
C=C1NC(=O)[C@H](C)NC(=O)[C@H]([C@@H](C)CC)N[C@@H]2C=Cc3c([C@H](C)O)cc(nc3[C@H]2O)C(=O)O[C@H](C)[C@@H]2NC(=O)c3csc(n3)[C@H]([C@](C)(O)[C@@H](C)O)NC(=O)[C@H]3CSC(=N3)/C(=C/C)NC(=O)[C@H]([C@@H](C)O)NC(=O)c3csc(n3)[C@]3(CCC(c4nc(C(=O)NC(CB(O)O)C(=O)NC(CB(O)O)C(N)=O)cs4)=N[C@@H]3c3csc2n3)NC(=O)[C@H](C)NC1=O (stereo partly drawn) [compound 3]	422 ± 8.5 µg/mL (≈ 240 µM)	170 ± 2.6 µg/mL (≈ 96.6 µM)	84 ×	27 ×
